Experimental data published in patent US20200246284A1 (Academia Sinica, priority 2015, published 2020).
Like-named read-outs stand apart in the source and are kept apart here.

Tests used:
[1] = tested on: U2932; details: human
Description: (§1) After 72 hours, the cultures were pulsed with Alamar Blue overnight, and the fluorescent intensity of resulted cultures was measured by a Synergy H1 plate-reader (BioTek Inc).

[2] = tested on: NECB1; assay: Combination with BO-1055, MCL (Tables 28, 29); assay type: cell-based, human
[3] = tested on: Ly18; assay: Cytotoxicity DLBCL; details: read-out: cytotoxicity IC50; LY18, DLBCL GCB
Description: as §1

[4] = tested on: JEKO-1; assay: Cytotoxicity mantle cell lymphoma
Description: as §1

[5] = tested on: Mino; assay: Combination with BO-1055, MCL (Tables 28, 29); assay type: cell-based, human
[6] = tested on: Ly10
Description: as §1

[7] = tested on: HBL1; details: human
Description: as §1

[8] = tested on: REC-1; assay: Combination with BO-1055, MCL (Tables 28, 29); assay type: cell-based, human
[9] = tested on: NECB-1; assay: Cytotoxicity mantle cell lymphoma
Description: as §1

[10] = tested on: Granta; assay: Combination with BO-1055, MCL (Tables 28, 29); assay type: cell-based, human
[11] = tested on: Pfeiffer
Description: as §1

[12] = tested on: A204 rhabdomyosarcoma; assay: Cytotoxicity sarcoma; details: read-out: cytotoxic activity (IC50), A204 (rhabdoid?)
Description: as §1

[13] = biological target: hERG (Homo sapiens, UniProt Q12809); assay: in vitro
Chain of hERG (Q12809 whole entry): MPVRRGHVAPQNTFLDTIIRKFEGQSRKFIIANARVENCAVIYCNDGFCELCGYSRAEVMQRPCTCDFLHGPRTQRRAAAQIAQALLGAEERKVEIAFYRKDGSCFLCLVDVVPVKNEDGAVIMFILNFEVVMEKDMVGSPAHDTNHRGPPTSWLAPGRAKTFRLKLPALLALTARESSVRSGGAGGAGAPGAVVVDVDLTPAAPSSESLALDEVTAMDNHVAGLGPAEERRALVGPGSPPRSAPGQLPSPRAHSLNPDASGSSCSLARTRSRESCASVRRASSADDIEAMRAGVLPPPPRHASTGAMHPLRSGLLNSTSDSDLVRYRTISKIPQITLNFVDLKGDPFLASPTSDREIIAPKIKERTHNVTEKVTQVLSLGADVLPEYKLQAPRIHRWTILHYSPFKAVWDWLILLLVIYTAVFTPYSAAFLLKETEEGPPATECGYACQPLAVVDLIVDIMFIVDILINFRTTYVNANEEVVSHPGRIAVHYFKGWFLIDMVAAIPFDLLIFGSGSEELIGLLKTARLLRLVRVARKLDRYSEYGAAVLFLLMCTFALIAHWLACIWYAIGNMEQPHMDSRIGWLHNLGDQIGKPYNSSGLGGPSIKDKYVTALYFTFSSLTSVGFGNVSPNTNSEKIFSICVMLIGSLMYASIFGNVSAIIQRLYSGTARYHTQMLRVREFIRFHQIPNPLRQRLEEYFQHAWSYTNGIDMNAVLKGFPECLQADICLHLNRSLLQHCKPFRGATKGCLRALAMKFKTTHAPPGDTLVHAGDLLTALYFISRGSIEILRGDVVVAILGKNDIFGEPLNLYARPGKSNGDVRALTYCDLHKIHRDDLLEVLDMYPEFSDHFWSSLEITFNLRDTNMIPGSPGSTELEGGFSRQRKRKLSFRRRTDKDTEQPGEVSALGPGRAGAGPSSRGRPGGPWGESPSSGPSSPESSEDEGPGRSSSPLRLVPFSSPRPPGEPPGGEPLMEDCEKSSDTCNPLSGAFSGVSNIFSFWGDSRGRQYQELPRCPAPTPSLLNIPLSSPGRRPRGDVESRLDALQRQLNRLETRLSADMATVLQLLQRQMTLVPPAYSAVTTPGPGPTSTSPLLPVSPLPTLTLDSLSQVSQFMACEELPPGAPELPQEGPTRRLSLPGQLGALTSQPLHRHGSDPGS

[14] = tested on: Z-138; assay: Cytotoxicity mantle cell lymphoma; details: read-out: cytotoxicity IC50, Z-138, mantle cell lymphoma
Description: as §1

[15] = tested on: SUDHL-5; assay: Cytotoxicity DLBCL; details: read-out: cytotoxicity IC50; SUDHL-5, DLBCL GCB
[16] = tested on: Z-138; assay: Combination with BO-1055, MCL (Tables 28, 29); assay type: cell-based, human
[17] = tested on: Farage; assay: cells; details: Homo sapiens, read-out: cytotoxicity IC50
[18] = tested on: Ly19; assay: cells; details: Homo sapiens, read-out: cytotoxicity IC50
[19] = tested on: SUDHL-6
Description: as §1

[20] = tested on: Toledo; details: human
Description: as §1

[21] = tested on: Mino
Description: as §1

[22] = tested on: JEKO-1; details: human
Description: as §1

[23] = tested on: Granta-519
Description: as §1

[24] = tested on: Granta-519; assay: Cytotoxicity mantle cell lymphoma; details: human, Granta-519 mantle cell lymphoma cells, 72 h
Description: as §1

[25] = tested on: Mino; assay: Cytotoxicity mantle cell lymphoma; details: human, Mino mantle cell lymphoma cells, 72 h
Description: as §1

[26] = tested on: primary patient Ewing's sarcoma xenograft in NSG mice; assay: Cyclophosphamide-resistant primary Ewing's sarcoma xenograft; assay type: in vivo, mouse; details: cyclophosphamide 70 mg/kg i.p. x3, then BO-1055 30 mg/kg iv x4
[27] = tested on: FBMC fetal BM stroma; assay: Cytotoxicity normal tissue 72 hr; assay type: cell-based; details: Homo sapiens
[28] = tested on: LY1; details: human
Description: as §1

[29] = tested on: SUDHL-4
Description: as §1

[30] = tested on: spontaneous murine B-cell lymphoma; details: mouse
[31] = tested on: Ly3 (OCI-LY3); details: human
Description: as §1

[32] = tested on: Ly8
Description: as §1

[33] = tested on: Rhabdomyosarcoma cell lines; assay: Cytotoxicity, sarcoma panel (Table 30); assay type: cell-based; details: Homo sapiens, 5/6 rhabdomyosarcoma lines
[34] = tested on: MS-5 adult BM stroma; assay: Cytotoxicity normal tissue 72 hr; assay type: cell-based, mouse; details: MS-5 (mouse), 72 hr; listed as TMZ; read-out: IC50
[35] = tested on: normal human, murine or primate cell and tissue types; assay: Cytotoxicity, panel of normal tissues (MTT, alamar blue); assay type: cell-based; details: 5 highly drug resistant normal tissues
[36] = tested on: CV1 renal fibroblasts; assay: Cytotoxicity normal tissue 72 hr; assay type: cell-based, African green monkey (Cercopithecus aethiops); details: Chlorocebus sabaeus, Fibroblast; CV1 primate, 72 hr; read-out: IC50
[37] = read-out: cytotoxicity IC50, NECB-1, mantle cell lymphoma

`COc1cccc2c1C(=O)c1c(O)c3c(c(O)c1C2=O)C[C@@](O)(C(=O)CO)C[C@@H]3O[C@H]1C[C@H](N)[C@H](O)[C@H](C)O1` [Doxorubicin] was tested, and the IC50 [1] was 50 nM, the “interaction with BO-1055” value [2] was “synergistic with combo-1 and antagonistic against combo-2” and the IC50 [3] was 97 nM. For the same compound, the IC50 [4] was 50 nM, the “interaction with BO-1055” value [5] was “both combinations were synergistic” and the IC50 ([6]; human) was 84 nM. The IC50 [7] was 211 nM, the “interaction with BO-1055” value [8] was “both combinations were antagonistic” and the IC50 [9, 37] was 163 nM. For the same compound, the IC50 ([9]; read-out: cytotoxicity IC50, NECB-1, mantle cell lymphoma, listed as Doxo) was 1230 nM, the “interaction with BO-1055” value [10] was “synergistic with combo-1 and antagonistic against combo-2” and the IC50 ([11]; human) was 61 nM. For the same compound, the IC50 [12] was 11 nM, the IC50 [13] was 30 ± 30 nM and the IC50 [14] was 33 nM. For the same compound, the IC50 ([14]; listed as Doxo) was 340 nM, the IC50 [15] was 912 nM and the “interaction with BO-1055” value [16] was “both combinations were synergistic”. For the same compound, the IC50 [17] was 273 nM, the IC50 [18] was 121 nM and the IC50 ([19]; human) was 195 nM. It also gave an IC50 [20] of over 10000 nM.

With `CC(=O)O[C@H]1C(=O)[C@@]2(C)[C@H]([C@H](OC(=O)c3ccccc3)[C@]3(O)C[C@H](OC(=O)[C@H](O)[C@@H](NC(=O)c4ccccc4)c4ccccc4)C(C)=C1C3(C)C)[C@]1(OC(C)=O)CO[C@@H]1C[C@@H]2O` [Paclitaxel] the IC50 ([21]; human) was 25 nM, the IC50 [9, 37] was 64 nM and the IC50 [22] was 17 nM. For the same compound, the IC50 [14] was 12 nM and the IC50 ([23]; human) was 49 nM.

Compound `Cc1[nH]c2ccccc2c1CCNCc1ccc(/C=C/C(=O)NO)cc1` [Panobinostat] has an IC50 [24] of 41 nM, an IC50 ([4]; human, JEKO-1 mantle cell lymphoma cells, 72 h) of 210 nM and an IC50 [25] of 291 nM. The IC50 ([9]; human, NECB-1 mantle cell lymphoma cells, 72 h) was 20 nM.

With `O=P1(N(CCCl)CCCl)NCCCO1` (stereo not drawn) [cyclophosphamide] the tumor growth [26] was “Tumor growth was not inhibited”.

For `N[C@@H](Cc1ccc(N(CCCl)CCCl)cc1)C(=O)O` [Melphalan], the IC50 [4] was 1100 nM and the IC50 [27] was over 10000 nM.

For `CC(C)C[C@H](NC(=O)[C@H](Cc1ccccc1)NC(=O)c1cnccn1)B(O)O` [velcade, Bortezomib], the IC50 ([21]; human) was 42 nM, the IC50 [28] was 5 nM and the IC50 [1] was 5 nM. The “interaction with BO-1055” value [2] was “synergistic with combo-1 and antagonistic with combo-2”, the IC50 [3] was 10 nM and the “interaction with BO-1055” value [5] was “synergistic cytotoxic with both combinations”. The IC50 ([29]; human) was 3 nM, the IC50 [30] was 6 nM and the IC50 [7] was 4 nM. The “interaction with BO-1055” value [8] was “antagonistic in both combinations”, the IC50 [9, 37] was 143 nM and the IC50 [31] was 21 nM. The “interaction with BO-1055” value [10] was “synergistic with combo-1 and antagonistic with combo-2”, the IC50 ([11]; human) was 4 nM and the IC50 [15] was 18 nM. For the same compound, the IC50 ([23]; human) was 8 nM, the “interaction with BO-1055” value [16] was “synergistic cytotoxic with both combinations” and the IC50 ([32]; human) was 78 nM. For the same compound, the IC50 ([19]; human) was 1 nM and the IC50 [20] was 108 nM.

`CNC(=O)c1cc(Oc2ccc(NC(=O)Nc3ccc(Cl)c(C(F)(F)F)c3)cc2)ccn1` [SOR] gave an IC50 [21] of at least 8000 nM, an IC50 [29] of 5620 nM and an IC50 [6] of at least 8000 nM. For the same compound, the IC50 [11] was 4570 nM, the IC50 [23] was at least 8000 nM and the IC50 [32] was at least 8000 nM. It also gave an IC50 [19] of at least 8000 nM.

`Cn1nnc2c(C(N)=O)ncn2c1=O` [Temozolomide] gave an IC50 [33] of at least 191000 nM, an IC50 [34] of 5590 nM and an IC50 [35] of at least 20000 nM. It also gave an IC50 [12] of 569000 nM and an IC50 [36] of over 100000 nM.
